{
  "source": "patent US9340511B2",
  "about": "“Process for making isoquinoline compounds” (FIBROGEN, INC., priority 2012, dated 2016)",
  "data": [
    {"tested_on": "Hep3B cells", "test": "Cell-Based EPO Assay", "parameters": "species or system human", "conditions": "30 μM compound in DMSO compared to DMSO only control, 72 hours, value minus vehicle control", "procedure": "Cell-Based EPO Assay Hep3B cells (human hepatocellular carcinoma cells from ATCC, cat # HB-8064) were plated at 25,000 cells per well 96 well plates. The next day, the cells were washed once with DMEM (Cellgro, cat #10-013-CM)+0.5% fetal bovine serum (Cellgro, cat #35-010-CV) and incubated with various concentrations of compound or vehicle control (0.15% DMSO) in DMEM+0.5% fetal bovine serum for 72 hours. Cell free culture supernatants were generated by transfer to a conical bottom 96 well plate and centrifugation for 5 minutes at 2000 rpm. The supernatant was quantitated for EPO using a human EPO ELISA kit (R&D Systems, cat # DEP 00). The EPO values for the compounds reported herein (e.g., Table 1) are the measured value for cells plus compound minus the value for the vehicle control for the same cell preparation. The EPO values for the vehicle control for the cell preparations used in experiments reported herein varied from 0-12.5 mIU/ml.", "units": {"Cell EPO* (mIU/ml)": "mIU/ml"}, "values": [
      {"smiles": "Cc1nc(C(=O)NCC(=O)O)c(O)c2cc(Oc3ccccc3)ccc12", "note": "[Compound 2f, 2-(4-hydroxy-1-methyl-6-phenoxyisoquinoline-3-carboxamido)acetic acid]", "Cell EPO* (mIU/ml)": 78},
      {"smiles": "Cc1nc(C(=O)NCC(=O)O)c(O)c2cc(Oc3cc(F)cc(F)c3)ccc12", "note": "[Compound 8f, 2-[4-hydroxy-1-methyl-6-(3,5-difluoro-phenoxy)-isoquinoline-3-carboxamido]acetic acid]", "Cell EPO* (mIU/ml)": 105},
      {"smiles": "Cc1nc(C(=O)NCC(=O)O)c(O)c2c(Oc3ccccc3)cccc12", "note": "[Compound 1f, 2-(4-hydroxy-1-methyl-5-phenoxyisoquinoline-3-carboxamido)acetic acid]", "Cell EPO* (mIU/ml)": 98.6},
      {"smiles": "Cc1nc(C(=O)NCC(=O)O)c(O)c2cccc(Oc3ccccc3)c12", "note": "[Compound 4f, 2-(4-hydroxy-1-methyl-8-phenoxyisoquinoline-3-carboxamido)acetic acid]", "Cell EPO* (mIU/ml)": 52},
      {"smiles": "Cc1nc(C(=O)NCC(=O)O)c(O)c2ccc(Oc3cc(F)cc(F)c3)cc12", "note": "[Compound 7f, 2-[4-hydroxy-1-methyl-7-(3,5-difluoro-phenoxy)-isoquinoline-3-carboxamido]acetic acid]", "Cell EPO* (mIU/ml)": 225},
      {"smiles": "COc1ccc(Oc2ccc3c(O)c(C(=O)NCC(=O)O)nc(C)c3c2)cc1", "note": "[Compound 5f, 2-[4-hydroxy-1-methyl-7-(4-methoxy-phenoxy)-isoquinoline-3-carboxamido]acetic acid]", "Cell EPO* (mIU/ml)": 209},
      {"smiles": "COc1ccc(Oc2ccc3c(C)nc(C(=O)NCC(=O)O)c(O)c3c2)cc1", "note": "[Compound 6f, 2-[4-hydroxy-1-methyl-6-(4-methoxy-phenoxy)-isoquinoline-3-carboxamido]acetic acid]", "Cell EPO* (mIU/ml)": 191}
    ]}
  ]
}
